Experimental data as given in publication PMC9611727, “Optimization of a Novel Mandelamide-Derived Pyrrolopyrimidine Series of PERK Inhibitors” (Pharmaceutics, 2022).

Assays:
Experiment in all cases: scanMAX kinase panel
Format in all cases: binding
Settings in all cases: read-out: % Control; for remaining binding at 1 µM: 1000 nM
[1] = target: T1, TRKB (Homo sapiens, UniProt Q16620)
T1 construct: purchased DiscoverX (scanMAX panel)
Description: (§1) Supplemental Table S2. scanMAXSM Kinome Assay Results. Complete tabulated data of all 468 kinases from the panel, including
(§2) 403 wild-type and 65 mutant isoforms. […] Cmpd 11 and Cmpd 24

[2] = target: T2, EIF2AK1 (Homo sapiens, UniProt Q9BQI3)
T2 construct: purchased DiscoverX scanMAX
Description: as §1, §2

[3] = target: T3, MAP3K3 (Homo sapiens, UniProt Q99759)
T3 construct: purchased DiscoverX scanMAX
T3 sequence (Q99759 1-626): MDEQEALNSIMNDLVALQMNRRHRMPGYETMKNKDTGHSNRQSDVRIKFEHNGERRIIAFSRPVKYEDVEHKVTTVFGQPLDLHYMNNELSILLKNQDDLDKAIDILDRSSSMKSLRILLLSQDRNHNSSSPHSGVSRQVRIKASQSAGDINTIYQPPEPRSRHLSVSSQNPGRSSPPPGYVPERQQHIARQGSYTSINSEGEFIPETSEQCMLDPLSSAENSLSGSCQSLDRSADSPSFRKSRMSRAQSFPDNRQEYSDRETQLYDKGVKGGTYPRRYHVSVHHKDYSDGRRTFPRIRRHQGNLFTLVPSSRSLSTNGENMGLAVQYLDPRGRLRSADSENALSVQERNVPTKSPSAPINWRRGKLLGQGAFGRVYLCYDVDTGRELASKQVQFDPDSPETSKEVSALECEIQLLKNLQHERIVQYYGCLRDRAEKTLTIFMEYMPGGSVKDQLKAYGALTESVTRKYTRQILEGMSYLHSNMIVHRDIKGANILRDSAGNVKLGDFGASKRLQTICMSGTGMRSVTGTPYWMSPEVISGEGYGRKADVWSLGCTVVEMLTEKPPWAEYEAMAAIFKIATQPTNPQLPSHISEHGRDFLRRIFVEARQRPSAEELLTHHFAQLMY
Description: as §1, §2

[4] = target: T4, NEK5 (Homo sapiens, UniProt Q6P3R8)
T4 construct: purchased DiscoverX scanMAX
T4 sequence (Q6P3R8 1-708): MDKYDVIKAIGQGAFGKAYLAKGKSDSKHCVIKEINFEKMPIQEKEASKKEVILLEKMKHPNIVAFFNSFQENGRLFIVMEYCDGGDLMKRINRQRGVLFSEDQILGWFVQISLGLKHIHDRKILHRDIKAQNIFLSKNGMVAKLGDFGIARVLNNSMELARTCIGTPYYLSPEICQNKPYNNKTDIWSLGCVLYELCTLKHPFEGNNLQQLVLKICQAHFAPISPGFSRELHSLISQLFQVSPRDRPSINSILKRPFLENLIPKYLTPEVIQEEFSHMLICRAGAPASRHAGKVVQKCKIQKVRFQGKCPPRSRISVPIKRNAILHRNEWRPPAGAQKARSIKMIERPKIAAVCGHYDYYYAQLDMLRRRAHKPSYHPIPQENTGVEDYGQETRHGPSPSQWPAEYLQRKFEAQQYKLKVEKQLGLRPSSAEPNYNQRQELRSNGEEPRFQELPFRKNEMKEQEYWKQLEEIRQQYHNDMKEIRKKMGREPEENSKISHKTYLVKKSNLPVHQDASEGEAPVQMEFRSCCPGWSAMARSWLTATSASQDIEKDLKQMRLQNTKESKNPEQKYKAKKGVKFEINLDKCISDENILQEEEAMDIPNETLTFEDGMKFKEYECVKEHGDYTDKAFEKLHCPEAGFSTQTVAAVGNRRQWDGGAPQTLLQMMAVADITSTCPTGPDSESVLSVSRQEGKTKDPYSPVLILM
Description: as §1, §2

[5] = target: T5, FLT3(R834Q) (Homo sapiens, UniProt P36888, R834Q)
T5 construct: purchased DiscoverX scanMAX
T5 sequence (P36888 27-993 R834Q): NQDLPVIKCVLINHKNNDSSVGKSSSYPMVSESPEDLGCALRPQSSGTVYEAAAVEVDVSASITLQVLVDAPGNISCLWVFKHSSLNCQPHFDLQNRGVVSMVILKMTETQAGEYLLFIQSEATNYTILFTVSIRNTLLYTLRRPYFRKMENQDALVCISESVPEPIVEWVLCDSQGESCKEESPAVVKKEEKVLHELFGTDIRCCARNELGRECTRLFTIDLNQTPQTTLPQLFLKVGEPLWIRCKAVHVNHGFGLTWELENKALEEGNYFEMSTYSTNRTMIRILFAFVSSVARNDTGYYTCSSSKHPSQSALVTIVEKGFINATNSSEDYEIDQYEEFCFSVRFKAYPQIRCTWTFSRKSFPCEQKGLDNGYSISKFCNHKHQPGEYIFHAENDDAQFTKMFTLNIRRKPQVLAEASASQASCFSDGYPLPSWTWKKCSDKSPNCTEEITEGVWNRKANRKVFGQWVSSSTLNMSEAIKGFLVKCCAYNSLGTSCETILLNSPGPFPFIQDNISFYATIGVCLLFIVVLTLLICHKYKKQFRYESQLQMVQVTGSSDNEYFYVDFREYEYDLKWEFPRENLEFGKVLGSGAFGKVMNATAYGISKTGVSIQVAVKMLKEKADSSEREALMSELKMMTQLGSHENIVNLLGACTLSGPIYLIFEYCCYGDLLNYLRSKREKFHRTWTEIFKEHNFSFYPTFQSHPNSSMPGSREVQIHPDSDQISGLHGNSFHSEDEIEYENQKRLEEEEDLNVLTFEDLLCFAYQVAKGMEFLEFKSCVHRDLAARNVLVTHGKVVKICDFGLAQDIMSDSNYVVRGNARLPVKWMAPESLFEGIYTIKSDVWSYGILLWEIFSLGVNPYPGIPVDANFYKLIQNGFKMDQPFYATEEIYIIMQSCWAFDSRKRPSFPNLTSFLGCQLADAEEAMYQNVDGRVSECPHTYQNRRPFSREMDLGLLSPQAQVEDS
Description: as §1, §2

T2 sequence (Q9BQI3 whole entry): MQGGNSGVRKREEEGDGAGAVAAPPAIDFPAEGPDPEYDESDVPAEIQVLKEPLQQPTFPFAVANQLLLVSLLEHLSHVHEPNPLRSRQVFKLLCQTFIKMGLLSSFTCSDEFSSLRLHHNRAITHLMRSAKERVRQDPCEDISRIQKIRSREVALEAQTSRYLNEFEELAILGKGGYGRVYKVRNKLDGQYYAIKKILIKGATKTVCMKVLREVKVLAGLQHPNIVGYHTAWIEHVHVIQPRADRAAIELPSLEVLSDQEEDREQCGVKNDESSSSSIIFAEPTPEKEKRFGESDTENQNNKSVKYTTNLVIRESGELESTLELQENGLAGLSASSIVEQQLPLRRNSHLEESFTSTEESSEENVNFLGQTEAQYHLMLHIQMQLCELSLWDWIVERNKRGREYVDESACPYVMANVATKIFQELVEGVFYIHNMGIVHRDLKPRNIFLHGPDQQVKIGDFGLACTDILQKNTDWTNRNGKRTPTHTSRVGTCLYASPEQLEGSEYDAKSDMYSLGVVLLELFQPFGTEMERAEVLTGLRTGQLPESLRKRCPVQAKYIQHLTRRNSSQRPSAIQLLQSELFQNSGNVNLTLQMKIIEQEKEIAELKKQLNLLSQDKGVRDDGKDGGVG
T1 sequence (Q16620 32-822): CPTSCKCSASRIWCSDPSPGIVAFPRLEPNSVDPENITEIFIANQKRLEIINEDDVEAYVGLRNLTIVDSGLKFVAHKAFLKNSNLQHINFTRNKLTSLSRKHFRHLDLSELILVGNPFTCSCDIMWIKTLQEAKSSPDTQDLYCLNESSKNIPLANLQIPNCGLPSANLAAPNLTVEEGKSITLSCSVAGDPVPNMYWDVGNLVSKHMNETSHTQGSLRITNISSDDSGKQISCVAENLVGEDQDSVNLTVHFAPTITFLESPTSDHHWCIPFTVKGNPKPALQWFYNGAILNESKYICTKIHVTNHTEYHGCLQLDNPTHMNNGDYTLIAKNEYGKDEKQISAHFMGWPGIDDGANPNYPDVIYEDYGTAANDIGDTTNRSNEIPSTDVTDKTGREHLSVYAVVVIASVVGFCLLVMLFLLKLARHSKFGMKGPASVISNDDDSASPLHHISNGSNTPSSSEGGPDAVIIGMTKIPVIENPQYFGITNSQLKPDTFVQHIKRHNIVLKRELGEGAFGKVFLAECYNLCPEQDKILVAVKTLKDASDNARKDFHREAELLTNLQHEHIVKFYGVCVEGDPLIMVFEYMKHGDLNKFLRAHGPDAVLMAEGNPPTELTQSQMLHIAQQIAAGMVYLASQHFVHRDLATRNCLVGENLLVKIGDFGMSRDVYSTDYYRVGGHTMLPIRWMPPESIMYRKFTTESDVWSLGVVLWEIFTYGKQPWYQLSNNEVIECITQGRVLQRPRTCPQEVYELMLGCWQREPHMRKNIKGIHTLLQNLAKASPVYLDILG

SMILES	remaining binding at 1 µM [1]	remaining binding at 1 µM [2]	remaining binding at 1 µM [3]	remaining binding at 1 µM [4]	remaining binding at 1 µM [5]	remaining binding at 0.1 µM ([1]; 100 nM)	remaining binding at 0.1 µM ([2]; 100 nM)	remaining binding at 0.1 µM ([3]; 100 nM)	remaining binding at 0.1 µM ([4]; 100 nM)	remaining binding at 0.1 µM ([5]; 100 nM)
Cc1cc(NC(=O)[C@H](O)c2cccc(F)c2)ccc1-c1cn(C)c2ncnc(N)c12 [Compound 11, (R)-N-(4-(4-amino-7-methyl-7H-pyrrolo[2,3-d]pyrimidin-5-yl)-3-methylphenyl)-2-(3-fluorophenyl)-2-hydroxy acetamide]	22%	49%	32%	34%	59%	–	–	–	–	–
Cc1nc(N)c2c(-c3ccc(NC(=O)[C@H](O)c4cccc(F)c4)cc3C)cn(C)c2n1 [Compound 24]	96%	73%	100%	100%	98%	–	–	–	–	–
Cc1nc(N)c2c(-c3ccc(NC(=O)[C@H](O)c4cccc(C(F)(F)F)c4)cc3C)cn(C)c2n1 [Compound 26]	18%	78%	92%	96%	7.5%	92%	89%	100%	100%	84%
